Tests used:
Assay type in all cases: cell-based
H526 cell line = assay: Cell viability assay for NCI-H526 cell line (EZ-Cytox); details: Homo sapiens, NCI-H526, 120 h; H526 cells, 3-fold dilutions 3000 nM to 0.46 nM, 5 days
Outline: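 Read-out was EZ-Cytox colorimetric absorbance at 450 nm, taken after brief plate shaking, with IC50 derived. Before reading, H526 cells had been cultured with test compound for 5 days.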

MRC-5 cell line = assay: Cell viability assay for MRC-5 cell line (EZ-Cytox cytotoxicity experiment); details: Homo sapiens, MRC5, 120 h; MRC-5 normal cell line, 3-fold dilutions 10000 nM to 1.52 nM, 5 days; Exemplary Compounds, numeric values; read-out: Activity: IC50 value (nM) to MRC-5 cell line
Protocol: 4. Cell Viability Assay for MRC-5 Cell Line
(1) Culture of MRC-5 Cell Line
Passage of cultured cells was maintained within P15.
(2) Treatment of Compounds of the Present Invention
Then, it was cultured in 37° C.
(3) Cytotoxicity Experiment
CO2 incubator for 4 hours.

PLK1 = biological target: T1, PLK1 (Homo sapiens, UniProt P53350); assay: Luciferase assay for PLK1 in HeLa LgBit (Plk1-HiBit KI) cell line; details: compound 300 nM, luminescence after 9 hours
T1 construct: endogenous in cells; host or cells: HeLa LgBit (Plk1-HiBit KI): HeLa stably expressing LgBit, with HiBit knocked in at the endogenous Plk1 locus by CRISPR/Cas9
Outline: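 HeLa cells stably expressing LgBit, with HiBit knocked in at the endogenous Plk1 C-terminus, synchronized by 2 mM thymidine block for 24 h, then released and cultured 18 h. Compound added at 300 nM with Endurazine substrate; luminescence tracked in real time and expressed as ratio to DMSO.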

T1 sequence (P53350 whole entry): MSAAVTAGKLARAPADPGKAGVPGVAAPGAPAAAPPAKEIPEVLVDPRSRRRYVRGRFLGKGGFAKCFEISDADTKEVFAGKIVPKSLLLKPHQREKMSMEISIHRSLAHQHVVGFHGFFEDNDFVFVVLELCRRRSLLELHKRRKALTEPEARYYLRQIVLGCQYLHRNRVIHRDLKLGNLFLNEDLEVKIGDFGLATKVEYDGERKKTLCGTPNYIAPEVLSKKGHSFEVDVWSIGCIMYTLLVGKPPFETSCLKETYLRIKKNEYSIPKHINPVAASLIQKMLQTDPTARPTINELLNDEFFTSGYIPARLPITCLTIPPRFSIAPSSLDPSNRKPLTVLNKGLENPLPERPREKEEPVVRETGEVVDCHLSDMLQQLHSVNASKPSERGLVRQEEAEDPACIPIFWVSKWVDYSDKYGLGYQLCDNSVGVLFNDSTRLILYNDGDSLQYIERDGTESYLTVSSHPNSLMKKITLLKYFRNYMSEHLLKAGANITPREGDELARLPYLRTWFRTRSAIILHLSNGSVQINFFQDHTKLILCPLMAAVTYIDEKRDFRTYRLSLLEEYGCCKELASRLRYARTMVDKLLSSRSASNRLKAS

- Activity: ratio of the luminescence value of each Exemplary Compound treatment group to DMSO treatment group (PLK1): ++ (++<0.6)
SMILES: COc1cc(C(=O)NC2CC3(CCN(CC4CCN(c5cccc6c5n(C)c(=O)n6C5CCC(=O)NC5=O)CC4)CC3)C2)ccc1Nc1ncc2c(n1)N(C(C)C)CC(F)(F)C(=O)N2C (stereo not drawn) [Compound 38, 4-((7,7-difluoro-9-isopropyl-5-methyl-6-oxo-6,7,8,9-tetrahydro-5H-pyrimido[4,5-b][1,4]diazepin-2-yl)amino)-N-(7-((1-(1-(2,6-dioxopiperidin-3-yl)-3-methyl-2-oxo-2,3-dihydro-1H-benzo[d]imidazol-4-yl)piperidin-4-yl)methyl)-7-azaspiro[3.5]nonan-2-yl)-3-methoxybenzamide]
- IC50 (H526 cell line): < 0.03 µM
- IC50 (MRC-5 cell line): 3960 nM

— US20250101025A1, “NOVEL PLK1 DEGRADATION INDUCING COMPOUND” (UPPTHERA, INC., priority 2021, published 2025)
